Among the data in PubChem BioAssay (NCI) are TGI and GI50 values, retold here.

Where “and” joins values, the source holds several entries; their conditions need not be identical. Equal entries are not always repeated.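 Cultured in 96-well plates, cells were exposed to test compound for 48 hours across five concentrations. Abbreviation: GI50, concentration required for 50% inhibition of growth. The concentration for full growth arrest is given as TGI.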

What all share (assay): NCI tumour cell line growth inhibition, 48 h
The test system of assay [1] is M19-MEL melanoma.
Assay [2] concerns HOP-18 NSCLC.
The subject of assay [3] is SNB-78 CNS.
Assay [4] has as its system LXFL 529 NSCLC.
Assay [5] relates to RXF-631 renal.
Assay [6] has as its system XF 498 CNS.
In assay [7] the test system is MDA-N.
The subject of assay [8] is P388 leukemia.
For assay [9], the system named is P388/ADR leukemia.
Assay [10] deals with SN12K1 renal.

With `CN(c1ccccc1)c1c(Cl)c(=O)oc2c1ccc1occc12`, the TGI in [1], in [2], in assay [3], in assay [4] and in [5] was > 100 µM each time.

As for `C=CCc1cc(OC)c2c(c1)C(OC)CC(c1ccc(OC)c(OC)c1)O2` (stereo not given), the TGI in [1], in assay [6], in assay [3], in assay [4] and in [5] was > 100 µM each time.

Take `CCCCCCCCCCCCCC[C@@H](O)[C@H]1CC[C@H]([C@H]2CC[C@H]([C@H](O)CCCCCC[C@@H](O)CC3=C[C@H](C)OC3=O)O2)O1`: in [7], the GI50 is > 25 µM; the TGI was 6.48 µM and > 25 µM.

On to `CC1(C)C(=O)C(C)(C)C1=S`, for which the TGI in assay [1], in [6] and in assay [4] was > 100 µM throughout.

For `COc1cc(CCc2ccc(N)cc2)cc(OC)c1OC`, the TGI in [1] was > 100 µM; in [2], > 100 µM; in [6], > 100 µM; in assay [3], 85 µM; in assay [4], > 100 µM; in assay [5] it was > 100 µM.

With `CCOC(=O)C1(C)CCCCC(=O)N1` (stereo not given), the TGI in assay [1], in assay [2], in assay [6], in assay [3], in assay [4] and in assay [5] was > 100 µM in each case.

As for `c1ccc2c(c1)cc1n2CC2CN=NC12` (stereo not given), the TGI in [1], in assay [3], in [4] and in assay [5] was > 100 µM each time.

`Nc1c(Cl)ncnc1NCCCNc1ncnc(Cl)c1N`: the TGI in assay [1], in assay [2], in assay [6], in assay [3] and in assay [4] was > 100 µM in each case.

`COC(=O)C=Cc1ccc2nncnc2c1` (mixture of isomers): the TGI in assay [7] came to 46.1 µM.

Consider `CC(SC(=O)Nc1ccc(N=Nc2ccccc2)cc1)C(=O)O` (stereo not given), for which the TGI in [3] and in assay [4] was > 100 µM each time.

With `ClC(Cl)[Si]12OCCN(CCO1)CCO2`, the TGI in assay [2], in assay [3], in [4] and in [5] was > 100 µM each time.

For `CCOc1ccc(NC(=O)CC2C(=O)Nc3ccccc3S2(=O)=O)cc1` (stereo not given), the TGI in assay [1], in assay [2], in assay [6], in [3], in [4] and in assay [5] was > 100 µM throughout.

Consider `CC(=O)NNc1nc(C)c(C(=O)NNC(=O)C(=O)Nc2ccc(Cl)cc2Cl)s1`, for which the TGI in [1], in assay [6], in assay [3] and in assay [4] was > 100 µM in each case.

With `CN1c2ccccc2N(C(=O)c2ccccc2)C(CC(=O)O)c2cccn21` (stereo not given), the TGI in assay [1], in assay [2], in [6], in assay [4] and in assay [5] was > 100 µM each time.

Regarding `CCOC(=O)COc1ccc2c(C)cc(=O)oc2c1`, in assay [7], the TGI was > 100 µM.

As to `Cc1ccc(S(=O)(=O)NC(CN)C(=O)O)cc1` (stereo not given), the TGI in assay [7] was > 100 µM.

In the case of `Cc1c(/C=N/N(C)C)oc2c1cc(O)c1ncccc12`, the TGI is 16 µM in [2], > 100 µM in [6] and > 100 µM in [4].

As to `Cc1cc(N2CCN(C)CC2)n2nc(-c3ccc(Cl)cc3)nc2n1`, the TGI in assay [7] was > 100 µM.

Take `Cn1nc(-c2ccccc2)c2c(/C=C/c3ccccc3)onc2c1=O`: the TGI is > 100 µM in assay [1]; > 100 µM in [2]; 72.4 µM in assay [6]; > 100 µM in assay [3]; > 100 µM in assay [4]; > 100 µM in assay [5].

For `CC(C)(C)C(C#N)(C#N)c1ccc(C(C#N)(C#N)C(C)(C)C)nn1`, the TGI in [1], in assay [6], in assay [3], in assay [4] and in [5] was > 100 µM each time.

Consider `Cc1ccc(S(=O)(=O)N/N=C(/c2nc3ccc([N+](=O)[O-])cc3[nH]c2=O)C(O)c2ccc(C(O)/C(=N\NS(=O)(=O)c3ccc(C)cc3)c3nc4ccc([N+](=O)[O-])cc4[nH]c3=O)cc2)cc1` (stereo not given), for which the TGI in [6], in [3], in [4] and in assay [5] was > 100 µM each time.

Take `COc1cccc(-c2cc(=O)c3ccccc3[nH]2)c1`: the TGI was > 100 µM in [1], > 100 µM in assay [2], 72.3 µM in [6] and > 100 µM in assay [4].

Regarding `CCSc1c2ccccc2c(-c2nc(F)nc(F)n2)n1CCc1ccccc1`, the TGI in [1], in [6], in [3], in [4] and in assay [5] was > 100 µM each time.

As to `CN(C)C(=S)SCC(=O)Nc1ccccc1`, the TGI in assay [7] was > 100 µM.

Compound `COC(=O)CSSCc1ccc([N+](=O)[O-])cc1` gave a TGI in assay [7] of 34.7 µM.

As to `CC(=O)[O][Hg][c]1c(C)c(C)cc(C)c1C`, in assay [7], the GI50 was 0.83 µM and the TGI is 2.08 µM.

Turning to `C[C@]12CCC3[C@@H](CC[C@@H]4c5nonc5CC[C@]34C)C1CC[C@@H]2O` (stereo not given in full), the TGI in assay [1] is > 100 µM; in assay [2] it was > 100 µM; in assay [6], 53.7 µM; in [3], > 100 µM; in assay [4] it was > 100 µM; in [5] it was > 100 µM.

For `Brc1ccc2ns[s+]c2c1`, the TGI was > 100 µM in assay [1]; > 100 µM in [2]; > 100 µM in [6]; > 31.6 µM in assay [3]; > 100 µM in [4]; > 100 µM in assay [5].

For `O=S(=O)(c1cnccc1N1CCN(CCO)CC1)N1CCCC1`, the TGI in [7] is > 100 µM.

For `CC(=O)NC(CC(C)C)C(=O)NC(Cc1ccccc1)C(=S)N1CCCC1` (stereo not given), the TGI in assay [1], in assay [6], in assay [4] and in assay [5] was > 100 µM throughout.

On to `O=c1[nH]cnc2c1nnn2CCCCCCCCCCCCn1nnc2c(=O)[nH]cnc21`, for which the TGI was > 100 µM in [7]; > 100 µM in [1]; > 100 µM in [2]; 48 µM in assay [3]; > 100 µM in assay [4].

Turning to `NS(=O)(=O)OCCCCCCCOS(N)(=O)=O`, the TGI in assay [7] worked out at 1210 µM; in [1], 1300 µM; in assay [2], 2350 µM; in assay [6] it was 112 µM; in assay [8], 1300 µM; in [9], 2060 µM. The results for the TGI in assay [3] and in assay [10] were 2020 µM and 605 µM, respectively.

As to `NC(=O)NC1C(C(N)=O)N(Cc2ccccc2)C(=O)N1Cc1ccccc1` (stereo not given), the TGI in assay [1], in [2], in assay [6], in assay [3], in assay [4] and in assay [5] was > 100 µM throughout.

For the compound `C=C1C(=O)OC2/C=C(/C)C(OC(C)=O)C/C=C(\C)C(OC(=O)C3(C)OC3C)C(O)C12` (stereo not given), the TGI in assay [7] was > 100 µM.

Consider `CN(C)CCNC(=O)c1cccc2c1Oc1c(cccc1[N+](=O)[O-])O2`, for which the TGI in [7] is 12.6 µM.

`CC(=O)OC1COC(n2c(=S)n(-c3ccccc3)c(=O)c3ccccc32)C(OC(C)=O)C1OC(C)=O` (stereo not given): the TGI in [2], in [6], in assay [3], in assay [4] and in [5] was > 100 µM in each case.

As to `CC1=C(C(=O)Nc2ccc(Cl)c(C(=O)OC(C)C)c2)SCCO1`, the TGI in [1] is 75.5 µM; in assay [2], > 100 µM; in assay [6], > 91.3 µM; in [8] it was 54.2 µM; in [9], 46.4 µM; in assay [3] it was > 100 µM. This compound also gave a TGI in assay [10] of 63.1 µM.

On to `Nc1ncnc2c1ncn2C1OC(CO)C(O)C1N` (stereo not given), for which the TGI in [7] was > 100 µM.

As for `CC1=C(C(=O)Nc2cc(F)c(F)cc2F)C(c2ccc([N+](=O)[O-])cc2)C(C(=O)Nc2cc(F)c(F)cc2F)=C(C)N1`, the TGI in [1], in assay [3] and in assay [4] was > 100 µM each time.

`O=C(NNc1ccccc1)/C(=C/c1ccc2c(c1)OCO2)NC(=O)c1ccccc1`: the TGI in [2], in [6], in assay [3] and in assay [4] was > 100 µM throughout.
